Several values for one entry are separate records, joined by “and”; a condition that tells them apart may be missing. Equal values may be shown once. Entries after “also recorded” stand apart in the source; their conditions may differ. Read-outs that look alike come from different tables or passages of the source.
Key:
h5-HT1A = target: T1, h5-HT1A (Homo sapiens, UniProt P08908); assay: Radioligand binding assay, h5-HT1A
T1 sequence (P08908 1-422): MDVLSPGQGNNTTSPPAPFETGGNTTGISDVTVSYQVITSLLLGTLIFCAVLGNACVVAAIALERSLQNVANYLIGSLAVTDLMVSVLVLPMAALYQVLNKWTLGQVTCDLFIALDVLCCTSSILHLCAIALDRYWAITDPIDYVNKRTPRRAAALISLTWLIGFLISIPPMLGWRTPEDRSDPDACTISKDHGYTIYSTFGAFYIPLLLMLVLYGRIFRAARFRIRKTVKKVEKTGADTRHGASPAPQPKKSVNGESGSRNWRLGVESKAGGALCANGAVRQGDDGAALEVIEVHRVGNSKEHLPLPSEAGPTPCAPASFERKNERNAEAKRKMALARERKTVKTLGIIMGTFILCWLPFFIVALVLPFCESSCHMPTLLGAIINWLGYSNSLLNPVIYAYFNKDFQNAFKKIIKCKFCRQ

h5-HT2B = h5-HT2B (Homo sapiens, UniProt P41595); assay: Radioligand binding assay, h5-HT2B
gp5-HT4 = gp5-HT4 (Cavia porcellus, UniProt O70528); assay: Radioligand binding assay, gp5-HT4; parameters: species or system guinea pig; conditions: read-out: Affinity [ki (nM)]
Procedure: (§1) Binding affinities were determined in radioligand binding assays according to their standard assays protocols. In case 1, the assays included in the LeadProfilingScreen package plus 5-HT1 non-selective, 5-HT2 non-selective, 5-HT2B, 5-HT2C, 5-HT4, 5-HT5A, 5-HT6 and 5-HT7 were performed. In case 2, assays included in the High-throughput profile plus 5-HT1D, 5-HT2B, 5-HT4e were performed. For AS-19 further assays were carried out to complete its selectivity profile for serotonin receptors, including 5-HT1B, 5-HT1D, 5-HT2A and 5-HT4a.

h5-HT6 = h5-HT6 (Homo sapiens, UniProt P50406); assay: Radioligand binding assay, h5-HT6
h5-HT7 = h5-HT7 (Homo sapiens, UniProt P34969); assay: biochemical; conditions: Affinity [ki (nM)]
h5-HT5A = h5-HT5A (Homo sapiens, UniProt P47898); assay: Radioligand binding assay, h5-HT5A; conditions: read-out: Affinity [ki (nM)]
h5-HT3 = target: T2, h5-HT3 (Homo sapiens, UniProt P46098); assay: Radioligand binding assay, h5-HT3; conditions: read-out: Affinity [ki (nM)]
T2 sequence (P46098 24-478): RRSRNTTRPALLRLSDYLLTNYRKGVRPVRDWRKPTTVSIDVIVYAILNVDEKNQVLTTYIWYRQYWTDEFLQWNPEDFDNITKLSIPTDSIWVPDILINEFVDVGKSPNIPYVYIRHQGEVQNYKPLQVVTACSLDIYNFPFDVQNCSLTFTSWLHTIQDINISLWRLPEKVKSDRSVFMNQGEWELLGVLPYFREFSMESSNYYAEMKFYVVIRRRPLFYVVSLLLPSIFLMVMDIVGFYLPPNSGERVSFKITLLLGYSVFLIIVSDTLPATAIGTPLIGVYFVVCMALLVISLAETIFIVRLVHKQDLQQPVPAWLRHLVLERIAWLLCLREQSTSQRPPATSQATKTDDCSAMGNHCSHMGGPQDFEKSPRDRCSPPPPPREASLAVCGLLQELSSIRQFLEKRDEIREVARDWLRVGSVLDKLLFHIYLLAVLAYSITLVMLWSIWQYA
Procedure: as §1

5-HT7 receptors [1] = target: T3, 5-HT7 receptors (Homo sapiens, UniProt P34969); assay: cAMP measurement (HTRF) in HEK-293F cells stably expressing human 5-HT7 receptors; type: cell-based; parameters: expressed in transfected cells; host or cells: HEK-293F; conditions: for EC50: HEK-293F cells, human 5-HT7, mean ± SEM
Procedure: The HTRF CAMP kit from CisBio was used according to the manufacturer's directions. The experimental procedure was performed as stated below. After overnight serum-free incubation, suspended cells (20,000 cells per well) were added to 96-well culture plates in incubation buffer composed of Ham's F12 (Gibco) plus 1 mM 3-isobutyl-1-methyl-xanthine (IBMX; Sigma) and 20 μM pargyline (Sigma).
For agonist and antagonist experiments, 2 μl of either compound or vehicle was added to each well on 40 μl of cell suspension at different concentrations, preincubating plates for 10 min at room temperature after compound addition.

[2] = tested on: capsaicin-induced mechanical allodynia; assay: Capsaicin test, antiallodynic protocol (1 μg capsaicin, 1 g von Frey filament); conditions: for dose at which the antiallodynic effect reached the maximum: s.c.
Procedure: Animals were housed in groups of five, provided with food and water ad libitum and kept in controlled laboratory conditions with the temperature maintained at 21±1° C. and light in 12 h cycles (on at 07:00 h and off at 19:00 h). Experiments were carried out in a soundproof and air-regulated experimental room. The number of mice per group in each individual experiment was 16.
Capsaicin (8-methyl-N-vanillyl 6-nonamide) was dissolved in 1% DMSO (vehicle). […] Doses were calculated based on the molecular weight of the free base. All the compounds and vehicles (1% DMSO or physiological saline) were administered in a volume of 5 ml/kg through the subcutaneous (s.c.) route. When two compounds were co-administered, they were injected s.c. in opposite flanks of the mice.
Subplantar capsaicin injection initially evokes a nocifensive behavior that is characterized by lifting and guarding the injected paw and typically lasts up to 5 min following injection. […] In this study, sensitization by subplantar capsaicin injection was used to assess the effect of several 5-HT7 ligands on mechanical allodynia.
Drug treatments with 5-HT7 ligands were done 30 min before capsaicin injection and withdrawal latencies to a mechanical stimulus were determined 15 min after capsaicin injection (FIG. 1).
Mechanical allodynia was quantified by measuring the hind paw withdrawal response latency to von Frey filament stimulation. Mice were placed into compartment enclosures in a test chamber with a framed metal mesh floor and allowed to acclimate to their environment for 120 min before testing. […] The mechanical stimulus was applied to the plantar surface of the right, capsaicin-injected hind paw from below the mesh floor by using an automated testing device (dynamic plantar aesthesiometer; Ugo Basile, Italy) that lifts a straight filament (0.5 mm diameter). The filament exerted a fixed upward pressure (1 g or 0.25 g) on the plantar surface. When the animal withdrew its hind paw, the mechanical stimulus automatically stopped and the latency time was recorded. Latency was defined as the time from the onset of exposure to the filament to the cessation of the pressure when the sensor detected the withdrawal of the paw. A cut-off latency of 60 sec was imposed. Paw withdrawal latencies were measured in triplicate for each animal.
This approach enabled us to evaluate the possible antiallodynic effect of 5-HT7 ligands.
Data are presented as mean paw withdrawal latency responses in sec±S.E.M. Capsaicin-injected hind paw withdrawal responses to mechanical stimulation of treated mice were compared with those of untreated (vehicle-treated) mice. Statistical analysis to test intergroup comparisons was made using an initial one-way analysis of variance followed by the Newman-Keuls multiple comparison test. The level of significance was set at p<0.05.

h5-HT2C = h5-HT2C (Homo sapiens, UniProt P28335); assay: Radioligand binding assay, h5-HT2C
h5-HT2A = h5-HT2A (Homo sapiens, UniProt P28223); assay: Radioligand binding assay, h5-HT2A; conditions: read-out: Affinity [ki (nM)]
[3] = tested on: thermal hyperalgesia induced by partial sciatic nerve ligation; assay: Partial sciatic nerve ligation, plantar test (thermal hyperalgesia)
Procedure: Animals were housed in groups of five, provided with food and water ad libitum and kept in controlled laboratory conditions with the temperature maintained at 21±1° C. and light in 12 h cycles (on at 07:00 h and off at 19:00 h). Experiments were carried out in a soundproof and air-regulated experimental room.
The rest of compounds were prepared as aqueous solutions. Doses were calculated based on the molecular weight of the free base. All the compounds and vehicles (1% DMSO or physiological saline) were administered in a volume of 5 ml/kg through the subcutaneous (s.c.) route. When two compounds were co-administered, they were injected s.c. in opposite flanks of the mice.
This model consists of partial injury to the sciatic nerve at mid-thigh level. All surgical procedures for nerve injury were performed under isoflurane (IsoFlo®, Abbott-Laboratorios Dr. Esteve, S. A., Barcelona, Spain) anesthesia (induction: 3%; surgery: 2%). Briefly, mice were anaesthetized and the common sciatic nerve was exposed at the level of the mid-thigh of the right hind paw. Partial nerve injury was produced at about 1 cm proximal to the nerve trifurcation by tying a tight ligature around approximately 33 to 50% the diameter of the sciatic nerve using 9-0 non-absorbable virgin silk suture (Alcon surgical, Texas, USA). Ligature enclosed the outer ⅓-½ sciatic nerve whereas the rest of the nerve (inner ⅔-½) was leaved “uninjured”. The muscle was then stitched with 6-0 silk suture and the skin incision was closed with wound clips. Control, sham-operated mice underwent the same surgical procedure and the sciatic nerve was exposed, but not ligated. After surgery, animals were allowed to recover for 5 days prior to initiation of nociceptive behavioral tests (see experimental protocol below).
The effectiveness of acute treatments with 5-HT7 ligands compared to vehicle on the expression of neuropathic pain was investigated based on the following experimental protocol. […] After the habituation period, pre-injury baseline responses in each test were established during 2 consecutive days. One day after baseline measurements, nerve injury or sham operation was induced as previously described. Mice were then tested in either the von Frey or the plantar test on day 5 after the surgical procedure to monitor post-injury responses. Post-injury baseline responses of mice treated with vehicle were obtained on day 10 (basal pre-treatment). On days 11-13 mice received treatment with three different doses of 5-HT7 ligands following a Latin square design. Finally, on day 14 after surgery, baseline responses in vehicle-treated mice (basal post-treatment) were evaluated as an internal control to ensure that mechanical allodynia and thermal hyperalgesia were not influenced by previous treatments in the Latin square design.

[4] = tested on: sciatic nerve-ligatured rats; assay: Chronic constriction injury of the sciatic nerve (CCI-SN), Randall-Sellito test
Procedure: (§2) All compounds were prepared as aqueous solutions. […] When two compounds were co-administered, one was injected s.c. and the other i.p.
Briefly, the right common sciatic nerve was exposed at mid-tight level by blunt dissection through the biceps femoris muscle. Proximal to the trifurcation, ≈10 mm of nerve was freed from adhering tissue and four loose ligatures (5.0 chromic catgut) were tied around the sciatic nerve (≈1 mm apart). […] In sham-operated control rats, an identical dissection was performed on the right side allowing the sciatic nerve to be freed from surrounding tissue, but not ligatured. Finally, muscle and skin were closed in layers with silk thread.
Mechanical nociceptive thresholds, expressed as grams (g), were measured using the Randall-Sellito test (Ugo Basile analgesimeter; Bioseb, Chaville, France). An increasing pressure was applied to the nerve-injured hindpaw of unrestrained rats until paw withdrawal (PW) and then a squeak (i.e. the vocalization threshold when the paw was held under pressure) were obtained. As PW is a spinally coordinated reflex whereas vocalization is a supra-spinal integrated response (Kayser and Christensen, 2000), this test allowed assessment of the respective contribution of spinal versus supra-spinal mechanisms.

[5] = tested on: infraorbital nerve-ligatured rats; assay: Chronic constriction injury of the infraorbital nerve (CCI-ION), von Frey filaments
Procedure: Food and water were available ad libitum. Rats were allowed to habituate to the housing facilities for at least 1 week before surgery.
as §2
After pentobarbital-induced anaesthesia, the head of the rat was fixed in a stereotaxic frame, and a mid-line scalp incision was made, exposing skull and nasal bone. The infraorbital part of the right infraorbital nerve was then exposed. The edge of the orbit, formed by the maxillary, frontal, lacrimal and zygomatic bones, was dissected free, and orbital contents were gently deflected to give access to the infraorbital nerve. The latter was then dissected free at its most rostral extent in the orbital cavity, just caudal to the infraorbital foreamen. […] Care was taken to avoid any interruption of the epineurial circulation. In sham-operated rats, the right infraorbital nerve was exposed, but it was not ligatured.
In these rats with unilateral ligatures on the infraorbital nerve, sensitivity to mechanical stimulation in the ipsilateral vibrissal territory was assessed by determination of pressure threshold, delivered through von Frey filaments (Semmes-Weinstein monofilaments, Stoelting, Wood Dale, Ill., USA), necessary to trigger defensive behavioural response (brisk withdrawal of the head; attack; escape reaction).

[6] = tested on: mechanical allodynia induced by partial sciatic nerve ligation; assay: Partial sciatic nerve ligation, von Frey test (mechanical allodynia); type: in vivo, mice; conditions: for effect on mechanical allodynia (von Frey pressure threshold), nerve-injured mice: days 11-13 post-injury
Source text: Mechanical allodynia was quantified by measuring the tactile threshold for hind paw withdrawal following von Frey filament stimulation. […] The filament exerted an increasing upward pressure on the plantar surface. The pressure increased linearly with time (0.1 g/s; from 0 to 5 g in 50 s) until the mouse withdrew its paw. […] A cut-off threshold of 5 g (50 s) was imposed.
The filament of 0.4 g was first used. […] This up-down procedure was stopped four measures after the first change in animal responding and the threshold of response was calculated. Clear paw withdrawal, shaking was considered as a nociceptive-like response.

5-HT7 receptors [7] = target: T3, 5-HT7 receptors; conditions: Mahe et al., 2004; Romero et al., 2006; cited from earlier work
[8] = tested on: capsaicin-induced mechanical allodynia; assay: Capsaicin test, proallodynic protocol (4 ng capsaicin, 0.25 g von Frey filament); type: in vivo, mice; conditions: 10 mg/Kg s.c., 0.25 g pressure
Procedure: Alternatively, in some experiments, only 4 ng (instead of 1 μg) of capsaicin were injected into the paw and the pressure exerted by the filament was reduced to 0.25 g (instead of 1 g). […] This approach was used to test the possibility that treatments could exert a proallodynic effect. The FIG. 1 summarizes the two different experimental approaches carried out in this study.

h5-HT1F = target: T4, h5-HT1F (Homo sapiens, UniProt P30939); assay: Radioligand binding assay, h5-HT1F; conditions: read-out: Affinity [ki (nM)]
T4 sequence (P30939 1-366): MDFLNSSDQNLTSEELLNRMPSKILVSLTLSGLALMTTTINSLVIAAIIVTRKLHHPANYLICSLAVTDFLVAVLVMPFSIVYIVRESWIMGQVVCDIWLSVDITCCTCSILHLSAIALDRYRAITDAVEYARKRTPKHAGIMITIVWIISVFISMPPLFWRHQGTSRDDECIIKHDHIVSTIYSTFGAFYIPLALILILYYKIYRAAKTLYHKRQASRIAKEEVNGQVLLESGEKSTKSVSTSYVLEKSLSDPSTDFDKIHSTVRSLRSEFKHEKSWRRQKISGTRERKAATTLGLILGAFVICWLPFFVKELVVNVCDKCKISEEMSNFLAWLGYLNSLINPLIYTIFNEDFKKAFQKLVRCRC

5-HT1A = conditions: Foster et al., 1995; cited from earlier work

T3 sequence (P34969 whole entry): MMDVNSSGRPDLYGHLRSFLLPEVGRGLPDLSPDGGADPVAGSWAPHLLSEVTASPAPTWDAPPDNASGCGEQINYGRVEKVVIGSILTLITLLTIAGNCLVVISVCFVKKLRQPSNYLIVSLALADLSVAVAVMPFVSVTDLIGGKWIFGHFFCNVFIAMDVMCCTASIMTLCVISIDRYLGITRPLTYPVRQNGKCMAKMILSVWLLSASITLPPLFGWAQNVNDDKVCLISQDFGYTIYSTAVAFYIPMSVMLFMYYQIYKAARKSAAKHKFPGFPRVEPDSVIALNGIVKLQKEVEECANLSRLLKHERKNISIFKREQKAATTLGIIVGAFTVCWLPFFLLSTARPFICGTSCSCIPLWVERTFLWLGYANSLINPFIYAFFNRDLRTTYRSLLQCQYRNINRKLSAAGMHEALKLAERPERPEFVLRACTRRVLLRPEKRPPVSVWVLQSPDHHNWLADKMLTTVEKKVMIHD
Chain of h5-HT7 (P34969 whole entry): as above
Chain of h5-HT2C (P28335 33-458): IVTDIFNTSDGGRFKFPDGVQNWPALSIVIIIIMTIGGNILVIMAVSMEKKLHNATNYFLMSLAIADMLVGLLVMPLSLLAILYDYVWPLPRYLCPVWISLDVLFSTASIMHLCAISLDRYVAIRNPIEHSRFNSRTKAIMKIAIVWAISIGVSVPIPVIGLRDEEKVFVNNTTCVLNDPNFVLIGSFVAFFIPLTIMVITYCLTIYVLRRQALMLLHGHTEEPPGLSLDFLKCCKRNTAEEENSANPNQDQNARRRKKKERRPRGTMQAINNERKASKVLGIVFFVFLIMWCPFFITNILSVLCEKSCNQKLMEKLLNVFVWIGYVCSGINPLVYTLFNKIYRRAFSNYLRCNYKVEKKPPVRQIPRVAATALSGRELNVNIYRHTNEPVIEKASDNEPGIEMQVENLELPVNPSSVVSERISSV
Chain of gp5-HT4 (O70528 whole entry): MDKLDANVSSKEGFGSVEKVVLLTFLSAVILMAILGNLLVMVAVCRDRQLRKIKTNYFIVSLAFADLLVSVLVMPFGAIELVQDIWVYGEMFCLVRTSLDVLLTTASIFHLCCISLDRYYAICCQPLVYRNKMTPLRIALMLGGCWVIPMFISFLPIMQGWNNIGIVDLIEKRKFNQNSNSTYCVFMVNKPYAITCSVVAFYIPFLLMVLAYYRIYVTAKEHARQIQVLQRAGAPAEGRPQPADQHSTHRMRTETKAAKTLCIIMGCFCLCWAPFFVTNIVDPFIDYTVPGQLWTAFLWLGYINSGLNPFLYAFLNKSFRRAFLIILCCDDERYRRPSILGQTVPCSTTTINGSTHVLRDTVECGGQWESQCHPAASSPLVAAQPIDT
Chain of h5-HT5A (P47898 whole entry): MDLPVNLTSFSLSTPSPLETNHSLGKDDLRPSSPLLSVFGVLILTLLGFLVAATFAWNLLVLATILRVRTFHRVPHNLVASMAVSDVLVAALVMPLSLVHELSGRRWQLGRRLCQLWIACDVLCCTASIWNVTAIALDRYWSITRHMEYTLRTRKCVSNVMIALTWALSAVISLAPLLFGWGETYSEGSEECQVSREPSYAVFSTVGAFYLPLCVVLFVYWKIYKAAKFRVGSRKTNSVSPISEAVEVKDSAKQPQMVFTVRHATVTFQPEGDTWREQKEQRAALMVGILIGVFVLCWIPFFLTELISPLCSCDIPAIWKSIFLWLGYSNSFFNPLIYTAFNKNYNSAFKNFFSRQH
Chain of h5-HT2B (P41595 whole entry): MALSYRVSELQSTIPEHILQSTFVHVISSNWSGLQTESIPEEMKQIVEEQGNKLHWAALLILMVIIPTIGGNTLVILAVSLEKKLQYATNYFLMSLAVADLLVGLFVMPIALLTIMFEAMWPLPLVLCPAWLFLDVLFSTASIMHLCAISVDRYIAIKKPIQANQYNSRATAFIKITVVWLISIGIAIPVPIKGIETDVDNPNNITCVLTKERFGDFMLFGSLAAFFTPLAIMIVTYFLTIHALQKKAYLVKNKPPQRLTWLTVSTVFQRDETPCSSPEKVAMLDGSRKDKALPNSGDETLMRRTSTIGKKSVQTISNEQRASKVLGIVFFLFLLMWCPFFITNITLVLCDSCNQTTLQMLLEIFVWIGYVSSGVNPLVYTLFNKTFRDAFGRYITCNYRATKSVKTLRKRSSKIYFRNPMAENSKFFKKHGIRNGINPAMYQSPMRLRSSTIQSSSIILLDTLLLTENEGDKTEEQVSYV
Chain of h5-HT2A (P28223 whole entry): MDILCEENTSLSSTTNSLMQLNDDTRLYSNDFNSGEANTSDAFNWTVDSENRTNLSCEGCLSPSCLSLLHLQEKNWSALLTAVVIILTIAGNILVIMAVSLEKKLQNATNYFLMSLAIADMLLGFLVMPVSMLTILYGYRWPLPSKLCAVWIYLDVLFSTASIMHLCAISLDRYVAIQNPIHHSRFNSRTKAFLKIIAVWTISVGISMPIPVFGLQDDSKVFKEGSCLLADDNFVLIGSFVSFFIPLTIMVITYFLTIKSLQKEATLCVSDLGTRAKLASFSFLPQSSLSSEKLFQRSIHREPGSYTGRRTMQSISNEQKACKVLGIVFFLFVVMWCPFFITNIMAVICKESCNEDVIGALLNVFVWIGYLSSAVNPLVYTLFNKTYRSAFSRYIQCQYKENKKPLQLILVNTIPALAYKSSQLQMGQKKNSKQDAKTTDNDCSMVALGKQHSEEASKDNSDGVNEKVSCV
Chain of h5-HT6 (P50406 whole entry): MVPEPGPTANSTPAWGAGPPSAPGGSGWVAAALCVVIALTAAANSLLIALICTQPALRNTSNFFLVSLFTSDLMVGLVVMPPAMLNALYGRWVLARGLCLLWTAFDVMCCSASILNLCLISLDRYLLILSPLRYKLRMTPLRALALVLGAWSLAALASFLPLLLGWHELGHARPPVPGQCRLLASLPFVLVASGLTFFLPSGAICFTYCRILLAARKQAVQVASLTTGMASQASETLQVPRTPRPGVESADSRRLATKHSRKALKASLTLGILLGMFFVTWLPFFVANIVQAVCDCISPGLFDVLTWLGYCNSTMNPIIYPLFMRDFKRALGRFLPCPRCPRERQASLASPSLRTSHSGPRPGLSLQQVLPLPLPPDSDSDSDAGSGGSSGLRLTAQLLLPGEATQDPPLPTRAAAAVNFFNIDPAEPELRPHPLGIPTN

SMILES: Cc1nn(C)c(C)c1-c1cccc2c1CC[C@H](N(C)C)C2 [AS-19]
- Ki (h5-HT1A): 89.7 nM
- Ki (h5-HT2B): > 1000 nM
- Ki (gp5-HT4): > 1000 nM
- Ki (h5-HT6): > 1000 nM
- Ki (h5-HT7): 0.605 nM and 0.6 nM
- Ki (h5-HT5A): 98.5 nM
- Ki (h5-HT3): > 1000 nM
- EC50 (5-HT7 receptors [1]; EC50 (nM), cAMP concentration-response curves): 8.87 ± 0.57 nM
- Emax (5-HT7 receptors [1]; HEK293F): 77 ± 2.3%
- EC50 (5-HT7 receptors [1]; pEC50, cAMP concentration-response curves): 8.71 nM
- dose at which the antiallodynic effect reached the maximum ([2]; 1 g filament): 10 mg/kg
- Ki (h5-HT2C): > 1000 nM

SMILES: Cc1ccc(CNCC2(F)CCN(C(=O)c3ccc(F)c(Cl)c3)CC2)nc1 [F-13640, (3-Chloro-4-fluoro-phenyl)-[4-fluoro-4-{[(5-methyl-pyridin-2-ylmethyl)-amino]-methyl}piperidin-1-yl]methanone]
- effect on capsaicin-induced mechanical allodynia ([2]; 1 mg/kg s.c., 1 g filament): inhibited

SMILES: CN(C)CCSc1cccc(-c2ccccc2)n1 [MSD-5a, 2-(6-phenylpyridin-2-ylthio)-N,N-dimethylethanamine]
- Ki (h5-HT1A; h5-HT1A, read-out: Affinity [ki (nM)]): 16 nM
- Ki (h5-HT2A): 320 nM
- effect on thermal hyperalgesia (paw withdrawal latency), nerve-injured mice ([3]; 0.3 mg/kg s.c.): did not exert analgesic (antihyperalgesic) effect
- effect on thermal hyperalgesia (paw withdrawal latency), nerve-injured mice ([3]; 1 and 3 mg/kg s.c., days 11-13 post-injury): increased the withdrawal latency of nerve-injured paws to levels indistinguishable from control baseline pre-injury values
- effect on thermal withdrawal latency in sham-operated mice ([3]; sham-operated, s.c.): had no effects
- effect on mechanical nociceptive thresholds in sciatic nerve-ligatured rats ([4]; s.c., paw withdrawal and vocalization thresholds): clear-cut antihyperalgesic effects
- effect on response threshold (mechanical allodynia) in infraorbital nerve-ligatured rats ([5]; s.c., von Frey filaments, ipsilateral vibrissal territory): clearly increased the threshold
- effect on mechanical allodynia (von Frey pressure threshold), nerve-injured mice ([6]; 0.3 mg/kg s.c.): ineffective
- effect on mechanical allodynia (von Frey pressure threshold), nerve-injured mice ([6]; 1 and 3 mg/kg s.c.): significantly inhibited mechanical allodynia; also recorded: restored thresholds of the nociceptive withdrawal response of nerve-injured paws to baseline pre-injury values
- persistence of the antiallodynic effect after treatment ([6]; post-treatment thresholds, day 14 post-injury): disappeared the following day after last administration of MSD-5a
- effect on nociceptive threshold in sham-operated mice ([6]; sham-operated, s.c., over the doses tested): did not produce any effects
- effect on capsaicin-induced mechanical allodynia (paw withdrawal latency vs vehicle) ([2]; 3, 10 and 30 mg/kg s.c., 1 g filament): increased the latencies of nociceptive paw withdrawal responses
- effect on capsaicin-induced mechanical allodynia (paw withdrawal latency) ([2]; mice, 1 g filament, s.c. 30 min before capsaicin, over the doses tested): restored the nociceptive response of capsaicin-sensitized mice to baseline values
- dose at which the antiallodynic effect reached the maximum ([2]; 1 g filament): 10 mg/kg

SMILES: CC1CCN(CC[C@H]2CCCN2S(=O)(=O)c2cccc(O)c2)CC1 [SB-269970, (R)-3-(2-(2-(4-Methylpiperidin-1-yl)ethyl)pyrrolidine-1-sulfonyl)phenol]
- functionality at 5-HT7 receptor as described (5-HT7 receptors [7]): inverse agonist
- effect on AS 19-induced anti-hyperalgesia/anti-allodynia ([4]; antagonist i.p., AS-19 s.c., sciatic nerve-ligated rats): Blockade
- proallodynic effect (paw withdrawal latency) [8]: allodynia was evidenced
- effect on 5a-MSD-induced anti-hyperalgesia/anti-allodynia ([5]; antagonist i.p., 5a-MSD s.c., infraorbital nerve-ligated rats): Blockade
- effect on AS 19-induced anti-hyperalgesia/anti-allodynia ([5]; antagonist i.p., AS-19 s.c., infraorbital nerve-ligated rats): Blockade
- effect on capsaicin-induced mechanical allodynia ([2]; 10 mg/kg s.c., alone, 1 g filament): did not modify paw withdrawal latencies
- effect on the antiallodynic effect of AS-19 when co-administered ([2]; SB-269970 10 mg/kg + AS-19 5 mg/kg s.c.): blocked the antiallodynic effect of the agonist
- Ki (h5-HT1F): > 1000 nM

SMILES: COc1ccccc1N1CCN(CCN(C(=O)C2CCCCC2)c2ccccn2)CC1 [WAY-100635, N-(2-(4-(2-methoxyphenyl)-1-piperazinyl)ethyl)-N-(2-pyridinyl)cyclohexane carboxamide]
- ID50 for block of 5-HT1A-mediated effects induced by 8-OH-DPAT (5-HT1A): 0.01 mg/kg
- effect on capsaicin-induced mechanical allodynia ([2]; 0.1 and 0.3 mg/kg s.c., 1 g filament): unaffected
- effect on capsaicin-induced mechanical allodynia ([2]; 0.5 and 1 mg/kg s.c., 1 g filament): significant increase in paw withdrawal latency
- effect on the antiallodynic effect of AS-19 when co-administered ([2]; AS-19 at 5 and 10 mg/kg, WAY-100635 0.3 mg/kg or SB-258719 5 mg/kg s.c.): unaffected
- effect on the antiallodynic effect of F-13640 when co-administered ([2]; WAY-100635 0.3 mg/kg + F-13640 1 mg/kg s.c.): blocked this antiallodynic effect
